Here are results for seven compounds from patent publication US9029393B2, “Adenosine receptor ligands and uses thereof” (Kaldi Pharma, SAS, priority 2009, dated 2015).

One data set concerns the target hA2A receptor (Homo sapiens (Human), UniProt P29274). The data set can be described thus: A2A FRET-based binding assay. The conditions noted are these: HEK GFP-A2A stable cell line, dyed CGS15943-derived probe. How it is done:
Assay protocol: Compounds were evaluated on an in-vitro binding assay developed based on the technology described in the patent WO 98/55873. This assay was developed from hA2A receptor that was fused at its amino terminal domain to Green Fluorescent Protein (GFP) and stably expressed in HEK cells. The probe used is a dyed ligand derived from the non-selective CGS15943. For the FRET-binding experiment, HEK GFP-A2A stable cell line was seeded onto poly-D-lysine precoated black-walled 96-well plates in normal growth media (0.7 10^5 cells per well). After 24 hours of culture at 37° C., the cell media was removed and cells were washed. The tested compounds were applied on cells by the FLIPR^TETRA® (Molecular Devices®) and incubated for 10 minutes prior to addition of the dyed probe. When a drug interacts with the receptor, the FRET signal measured by the variation of GFP fluorescence at 510 nm is disrupted. The time curves of ligand binding were recorded during 1000 seconds. (excitation Light Emitting Diode 470-495 nm, emission 510+/−10 nm). The percentage of inhibition allows the evaluation of the inhibitory activity of compounds in comparison to the antagonist A2A reference CGS15943. The dose-inhibition curves were fitted with variable slope, using GraphPad® Prism software, in order to determine […] and Ki values. The dose-inhibition experiments were all performed in duplicate, three times independently.

Another data set deals with human A2A receptor (Homo sapiens, UniProt P29274). The data set can be described thus: A2A-antagonist Ca++ functional assay (CGS21680 at EC80). Format: cell-based. The conditions noted are these: HEK cells expressing GFP-hA2A and Gα15, inhibition of CGS21680 (EC80)-induced Ca2+ increase. The text has this: Assay protocol: HEK cells stably expressing the human A2A receptor fused at its amino terminal domain to GFP, and cultured in Modified Eagle's Medium supplemented with 10% FCS, were transiently transfected by electroporation with plasmid DNA encoding the promiscuous G protein Gα15 in order to deviate the natural coupling of the receptor from AMPc production to calcium (Ca^2+) release pathway (Brabet et al., Neuropharmacology 37:1043-1051, 1998). Receptor activity was detected by changes in intracellular Ca^2+, measured using the fluorescent Ca^2+ sensitive dye, Fluo4AM (Molecular Probes®).
Cells were plated after transfection onto polyornithine coated, clear bottom, black-walled, 96-well plates and cultured for 24 hours. The day of the test, cells were washed with freshly prepared buffer B (HBSS 1×, Hepes 20 mM, MgSO4.7H2O 1 mM, Na2CO3 3.3 mM, CaCl2-2H2O 1.3 mM, 0.5% BSA, Probenecid 2.5 mM) and loaded at 37° C. in 5% CO2 for 1.5 hours with buffer B containing 1 μM Fluo4AM and 0.1 mg/mL Pluronic Acid. Afterwards cells were washed twice with buffer B and 50 μL of this buffer were added to each well. The tested compounds were incubated […] before addition of CGS21680 (used as reference agonist) at a concentration leading to 80% of its maximal activity (EC80). Afterwards, the intracellular Ca^2+ measurements were performed on a 60s kinetic by detection of the fluorescence intensity (excitation 485 nm, emission 525 nm) using the fluorescence microplate reader FlexStation® (Molecular Devices®). All data reflect three independent experiments. Dose-response curves were fitted by using the sigmoidal dose-response (variable slope) analyze in GraphPad Prism® program (San Diego) and IC50 of antagonist compound was calculated. Dose-response experiments were all performed in triplicate, three times independently.

Data set [1] relates to haloperidol-induced catalepsy. The data set can be described thus: Haloperidol-induced catalepsy model in the mouse (bar test). Format: in vivo.

Structures can show the parent of a compound that is named as a salt.

hA2A receptor, sequence (P29274 whole entry, the tested form may be a part): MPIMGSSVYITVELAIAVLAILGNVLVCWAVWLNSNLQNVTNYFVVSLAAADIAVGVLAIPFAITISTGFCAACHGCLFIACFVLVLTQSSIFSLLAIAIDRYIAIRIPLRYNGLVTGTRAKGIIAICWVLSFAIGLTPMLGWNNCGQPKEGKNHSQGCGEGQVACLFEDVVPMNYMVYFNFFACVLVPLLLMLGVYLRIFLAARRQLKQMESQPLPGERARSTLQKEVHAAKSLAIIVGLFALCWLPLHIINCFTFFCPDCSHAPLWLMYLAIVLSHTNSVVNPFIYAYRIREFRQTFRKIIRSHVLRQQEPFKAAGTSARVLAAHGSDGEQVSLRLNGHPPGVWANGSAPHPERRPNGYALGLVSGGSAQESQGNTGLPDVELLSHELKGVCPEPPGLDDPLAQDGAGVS

For `O=C(c1ccc2c(-c3cnc4ccc(F)cn34)noc2c1)N1CCCCCC1` [Example 113, Azepan-1-yl-[3-(6-fluoro-imidazo[1,2-a]pyridin-3-yl)-benzo[d]isoxazol-6-yl]-methanone], the melting point – broadly, the temperature of the solid-liquid transition – was 218 to 219 °C. The affinity at hA2A receptor, expressed as Ki, was 4 ± 1 nM. For the same compound, the midpoint of inhibition against human A2A receptor, the IC50, lay at 46 ± 3 nM.
`Nc1cc(C(=O)N2CCCCCC2)ccc1C(=O)c1cnc2ccc(F)cn12` [Example 30, [2-Amino-4-(azepane-1-carbonyl)-phenyl]-(6-fluoro-imidazo[1,2-a]pyridin-3-yl)-methanone] came in with a melting point of 141 to 152 °C. In addition, the Ki (commonly a dissociation constant, usually derived from enzyme kinetics or from competition with a known ligand) on hA2A receptor was 103 ± 52 nM. The IC50 – broadly, the concentration needed to halve the response being measured – at human A2A receptor is 992 ± 11 nM.
As to `O=C(c1ccc(C(=O)N2CCCCCC2)cc1)c1cnc2ccc(F)cn12` [Example 14, [4-(Azepane-1-carbonyl)-phenyl]-(6-fluoro-imidazo[1,2-a]pyridin-3-yl)-methanone], the melting point was in the range of 165 to 169 °C. Besides, the anti-cataleptic effect entry in data set [1] (1 mg/kg i.p. 120 minutes after haloperidol, FIG. 1) is listed as “no anticataleptic activity”. Further, the anti-cataleptic effect entry in data set [1] (30 mg/kg i.p. 120 minutes after haloperidol, FIG. 1) is on record as “the most important catalepsy reversion”. The anti-cataleptic effect entry in data set [1] (1, 3, 30 and 100 mg/kg i.p. 120 minutes after haloperidol (1 mg/kg i.p.), FIG. 1) is “significant anti-cataleptic effect in a dose-dependent manner”. In addition, the anti-cataleptic effect entry in data set [1] (10 and 30 mg/kg per os 120 minutes after haloperidol, FIG. 2) is reported as “significant anti-cataleptic effect in a dose-dependent manner”. At hA2A receptor, the affinity corresponds to a Ki of 12 ± 6 nM. This compound had an IC50 at human A2A receptor of 195 ± 100 nM.
Consider `O=C(c1ccc2c(c1)nnn2-c1cnc2ccc(F)cn12)N1CCCCCC1` [Example 132, 5-(Azepan-1-ylcarbonyl)-1-(6-fluoroimidazo[1,2-a]pyridin-3-yl)-1H-1,2,3-benzotriazole], for which the melting point fell in the range of 160 to 166 °C. Moreover, the inhibition constant (Ki) on hA2A receptor stood at 72 ± 10 nM. This compound also returned a 50% inhibitory concentration (IC50) on human A2A receptor of 326 ± 47 nM.
Compound `O=C(c1ccc(C(=O)N2CCCc3ccccc32)cc1)c1cnc2ccccn12` [Example 71, [4-(3,4-Dihydro-2H-quinoline-1-carbonyl)-phenyl]-imidazo[1,2-a]pyridin-3-yl-methanone] displayed a melting point of 169 to 175 °C. Besides, the Ki on hA2A receptor was 171 ± 70 nM. At human A2A receptor, this compound registered an IC50 of 1830 ± 122 nM.
`O=C(c1ccc(C(=O)N(C2CCCCC2)C2CCCCC2)cc1)c1cnc2ccccn12` [Example 48, N,N-Dicyclohexyl-4-(imidazo[1,2-a]pyridine-3-carbonyl)-benzamide]: on hA2A receptor, the Ki turned out to be 138 ± 115 nM. At human A2A receptor, this compound registered an IC50 of 945 ± 419 nM.
On to `Cn1nc(-c2cnc3ccc(F)cn23)c2ccc(C(=O)N3CCCCCCC3)cc21` [Example 97, Azocan-1-yl-[3-(6-fluoro-imidazo[1,2-a]pyridin-3-yl)-1-methyl-1H-indazol-6-yl]-methanone, chlorhydrate salt], for which the affinity at hA2A receptor corresponds to a Ki of 3 ± 0.4 nM. The compound also displayed an IC50 against human A2A receptor of 21 ± 8 nM.
